Assay in all cases: NCI tumour cell line growth inhibition, 48 h
The subject of experiment [1] is EKVX NSCLC.
Experiment [2] concerns HT29 colon.
The subject of experiment [3] is M14 melanoma.
Experiment [4] has as its system OVCAR-4 ovarian.
In experiment [5] the test system is RXF 393 renal.
Experiment [6] concerns SK-MEL-28 melanoma.
Experiment [7] has as its system UACC-62 melanoma.
Experiment [8] concerns MDA-MB-231 breast.
The test system of experiment [9] is PC-3 prostate.

Drawing on PubChem BioAssay (NCI), this text covers TGI and GI50 for 16 molecules.

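Tested at 5 concentrations; 48 h exposure; 96-well plates; endpoints linearly interpolated, else capped at highest concentration. The concentration for 50% growth inhibition is given as GI50. TGI is the concentration that stops growth completely.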

`NC(=O)NCc1c(C(N)=O)ncn1Cc1ccccc1`: the TGI in experiment [1], in [2], in [3], in experiment [4], in experiment [5] and in [6] was greater than 100 µM each time. This molecule gave a TGI in experiment [7] greater than 100 µM.

On to `COc1ccc(OC)c2c(C(=O)O)c(Cc3ccccc3)ccc12`, for which the TGI in experiment [1], in [2], in experiment [3], in experiment [4], in [5] and in experiment [6] was greater than 100 µM each time. In addition, in experiment [7], the TGI was greater than 100 µM.

Take `Cc1ncc(CCCN(C)C)cc1Nc1ncc2c(n1)-c1ccc(C(F)(F)F)cc1NC(=S)C2`: the GI50 was less than 0.0168 µM in experiment [2]; less than 0.016 µM in [3]; less than 0.0153 µM in experiment [8]; 1.22 µM in experiment [4]; less than 0.0207 µM in experiment [9]; 0.0313 µM in [7]. In addition, the TGI in [2] was 10.2 µM; in experiment [3] it was 15.7 µM; in experiment [8] it was 0.302 µM; in experiment [4], greater than 100 µM; in [9], 24.5 µM; in experiment [7], 17.9 µM.

For `CCCCCCCCCCCC(=O)OCC1OC(OC)C(NC(=O)N(CCCl)N=O)C(O)C1O` (configuration not stated), the TGI in experiment [2] came out at 31.2 µM; in experiment [3] it was 24.5 µM; in [4], 37.6 µM; in experiment [5] it was 26.4 µM; in experiment [6] it was 35.6 µM; in experiment [7], 15.7 µM.

`COc1cc(/C=C(\C#N)c2ccccc2)cc(OC)c1`: the TGI in [1], in [2], in [3], in [4], in experiment [6] and in experiment [7] was greater than 100 µM throughout.

Regarding `CCN(CC)c1ccc(N=Nc2ccc(-c3nc4ccc[n+](C)c4s3)cc2)cc1`, the TGI in [1] was determined as 58.8 µM; in [2], 18.5 µM; in [3], 37.6 µM; in [4], 20 µM; in experiment [7], 26.6 µM.

As for `COc1ccc2nc(NC(=O)C(=O)C(C#N)c3ccc([N+](=O)[O-])cc3)sc2c1` (configuration not stated), the TGI in experiment [1], in [2], in experiment [3], in experiment [4], in [5] and in experiment [6] was greater than 100 µM each time. The molecule also showed a TGI in experiment [7] greater than 100 µM.

For `C=CCc1ccc(Oc2cc(CC=C)c3c(c2O)O[C@@H](CO)[C@H]3c2ccc(O)c(-c3cc(CC=C)ccc3O)c2)cc1`, the TGI in experiment [1] is greater than 100 µM; in experiment [2], 49.1 µM; in experiment [3], greater than 100 µM; in experiment [4], greater than 100 µM; in experiment [5] it was greater than 100 µM; in experiment [6] it was greater than 100 µM. This molecule also came in with a TGI in experiment [7] of 85 µM.

Regarding `COc1cc(/C=C/c2cc(/C=C/c3ccc(O)c(OC)c3)n(C(=O)Nc3ccc(C)cc3C)n2)ccc1O`, the GI50 in experiment [1] is 0.995 µM; in experiment [2] it was 0.903 µM; in [8], 0.613 µM; in [4], 0.464 µM; in experiment [9] it was 0.379 µM; in experiment [5] it was 0.262 µM. Further, the values for the GI50 in experiment [6] and in experiment [7] were 0.509 µM and 0.412 µM, respectively. Further, the TGI in experiment [1] came to 5.76 µM; in [2], 3.59 µM; in experiment [8], 6.01 µM; in [4], 2.99 µM; in [9], 5.01 µM; in experiment [5], 0.775 µM. For the same molecule, the TGI turned out to be 2.46 µM in [6] and 1.65 µM in [7].

`Clc1ccc2c(c1)-c1c3c(nn1-c1ccccc1)-c1ccccc1SC3O2` (configuration not stated): the TGI in experiment [1], in [2], in [5] and in experiment [6] was greater than 100 µM in each case.

Regarding `O=c1c2cc(Br)cc(Br)c2nc(CCCl)n1CCO`, the TGI in [1], in experiment [2], in experiment [3], in experiment [4], in [5] and in experiment [6] was greater than 100 µM in each case. The molecule further gave a TGI in experiment [7] greater than 100 µM.

With `CN(C)c1cc[c]([Sn]([c]2ccc(N(C)C)cc2)([c]2ccc(N(C)C)cc2)[c]2ccc(N(C)C)cc2)cc1`, the GI50 was 6.74 µM in [1]; 2.91 µM in experiment [2]; 9.18 µM in experiment [3]; 7.65 µM in experiment [4]; 3.68 µM in [7]. For the same molecule, the TGI amounted to 28 µM in experiment [1]; 12.7 µM in experiment [2]; 21.6 µM in experiment [3]; 20.7 µM in experiment [4]; 17.4 µM in experiment [7].

Consider `O=C1[C@@H]2C(c3ccccc3F)=NO[C@@H]2C(=O)N1c1ccc(Cc2ccc(N3C(=O)[C@H]4C(c5ccccc5F)=NO[C@H]4C3=O)cc2)cc1`, for which the TGI in experiment [1] is greater than 100 µM; in [2] it was greater than 100 µM; in [3], greater than 100 µM; in experiment [4], greater than 100 µM; in experiment [5] it was greater than 81.3 µM; in experiment [6] it was greater than 100 µM. Besides, the TGI in experiment [7] was greater than 100 µM.

In the case of `O=C(c1ccccc1)C1OC12C(=O)Nc1ccccc12` (configuration not stated), the TGI in [1] was greater than 100 µM; in experiment [2], 37.9 µM; in [3], 63 µM; in experiment [4], greater than 100 µM; in experiment [5], 54.7 µM; in experiment [6], greater than 100 µM. The molecule also displayed a TGI in experiment [7] greater than 100 µM.

For the molecule `Cc1c(C(=O)/C=C/c2ccccc2)[n+](=O)c2ccccc2n1[O-]`, the TGI in [1] is 29.5 µM; in experiment [2], 35.7 µM; in [3], 29.1 µM; in experiment [4], 33 µM; in experiment [5] it was 20.9 µM; in [6], 31 µM. In experiment [7], this molecule gave a TGI of 28.6 µM.

With `C1C[OH+]CC[OH+]CC[OH+]CC[OH+]CC[OH+]1.[Cl-].[V]`, the GI50 in experiment [2] is greater than 100 µM; in experiment [3], 45.3 µM; in [4] it was 6.03 µM; in experiment [5], 18.1 µM; in experiment [6], 25.1 µM; in [7] it was 31.5 µM. Besides, the TGI was greater than 100 µM in experiment [2]; greater than 100 µM in [3]; 41.6 µM in [4]; 36.9 µM in experiment [5]; greater than 100 µM in experiment [6]; greater than 100 µM in [7].
